This series can be described thus: gradient 5% acetonitrile 3 min, to 50% in 2 min, to 85% in 15 min, held 3 min, 100 µL/min. The note with it: column: Zorbax Extend-C18 2.1 x 50 mm; eluents: water / acetonitrile, 0.1% formic acid. An outline of the steps:
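Retention times of pure standards were taken from adduct peaks that were selected by computer and manually inspected. Over 3 months, mixtures of ~100 molecules were run by HPLC–quadrupole time-of-flight mass spectrometry in positive and negative ionization mode. The Zorbax Extend-C18 column (2.1 × 50 mm, 1.8 μm) ran at 100 μL/min in water and acetonitrile, each containing 0.1% formic acid, with 40 μL dead volume and 900 μL dwell volume.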
`Cc1cc(C)cc(NC(=O)Cn2c(=O)n(-c3cccc(C)c3)c(=O)c3c2cc(C)n3C)c1` displayed an RP-LC retention time of 882 s.

For the compound `COc1ccc(Cl)cc1NC(=O)C1Oc2ccccc2NC1=O` (stereo unspecified), the RP-LC retention time came out at 873 s.

In turn, `Cc1cc2nc(N3CCOCC3)n(CC(=O)Nc3cc(F)cc(F)c3)c(=O)c2n1C` yielded an RP-LC retention time of 677 s.

Compound `CCCNC(=O)CCc1nc2ccccc2n(CC(=O)Nc2cccc(SC)c2)c1=O` displayed an RP-LC retention time of 819 s.

The compound `Cn1cnc2c(C(=O)NCC3CCCO3)nn(-c3ccc(Cl)cc3)c2c1=O` (stereo unspecified) had an RP-LC retention time of 715 s.

For the compound `O=C(NCc1ccccc1Cl)C(=O)c1cn(CC(=O)N2CCCC2)c2ccccc12`, the RP-LC retention time was 968 s.

Turning to `CC(=O)c1ccc(-n2ccc3c(cnc4c(-c5ccccc5)c(C)nn43)c2=O)cc1`, the RP-LC retention time was determined as 969 s.

`CCN1c2ccccc2C(=O)NC12CCN(C(=O)c1ccc3c(c1)OCO3)CC2` yielded an RP-LC retention time of 740 s.

`CCN1CCN(CCNC(=O)c2c(N3CCCC3=O)c3cc(F)ccc3n2CC)CC1` registered an RP-LC retention time of 614 s.

`Cc1nccn1-c1cc(N2CCC3(CC2)OCCO3)nc2ccnn12`: the RP-LC retention time was 577 s.

In the case of `O=C(Nc1nnc2n1CCS2)c1cc(Br)ccc1Cl`, the RP-LC retention time stood at 657 s.

As for `Cc1nc(NC(=O)c2ccc(F)cc2)nc2cc3c(cc12)OCO3`, the RP-LC retention time was determined as 705 s.

As to `Cc1cc(C)cc(C(=O)N2CCCC(C(=O)NC3CCCC3)C2)c1` (stereo unspecified), the RP-LC retention time is 836 s.

In turn, `CC(C)n1cnc2cc(CNC(=O)c3cc(F)ccc3Cl)ccc21` came in with an RP-LC retention time of 638 s.

`Cc1cc2c(c(=O)n(-c3ccc(F)cc3)c(=O)n2CC(=O)Nc2cccc(C(F)(F)F)c2)n1C` came in with an RP-LC retention time of 933 s.

`O=S(=O)(Cc1ccccc1Cl)N(CCc1cccs1)Cc1ccco1` gave an RP-LC retention time of 1080 s.

In turn, `CCc1noc(NC(C)=O)c1-c1ccc(C)c(S(=O)(=O)NCc2ccco2)c1` displayed an RP-LC retention time of 766 s.

`COc1ccc(C2(C(=O)N3CCC(c4noc(-c5cccc(OC)c5)n4)CC3)CC2)cc1` registered an RP-LC retention time of 1040 s.

As for `COc1cc(NC(=O)N2CCC(OC3CCN(S(C)(=O)=O)CC3)CC2)cc(OC)c1`, the RP-LC retention time worked out at 704 s.

`CC(=O)Nc1ccc(-c2nnc3n2CCCC3)cc1` yielded an RP-LC retention time of 563 s.

As for `CCOC(=O)Cc1csc(NC(=O)Cc2csc(Nc3nc(C)cc(C)n3)n2)n1`, the RP-LC retention time stood at 769 s.

Regarding `COc1cn(CC(=O)NCc2ccc(F)cc2)c(CN2CCC(C)CC2)cc1=O`, the RP-LC retention time amounted to 550 s.

In turn, `COc1ccc(NC(=O)c2c[nH]c3nc(C)ccc3c2=O)cc1` returned an RP-LC retention time of 776 s.

As for `COc1cccc(CNC(=O)N2CCN(c3cnn4c(C)nnc4c3)CC2)c1`, the RP-LC retention time amounted to 658 s.

Take `Cc1ccc(C)c(N2CCN(c3ccnc(SCC(=O)NCCCc4ccccc4)n3)CC2)c1`: the RP-LC retention time worked out at 1060 s.

Compound `CC(C)(C)c1cc(C(=O)NC2CCCC2)nc2ccnn12` came in with an RP-LC retention time of 1150 s.

As for `O=C(Nc1ccc(F)cc1F)C1(CCO)CCN(c2ncccn2)C1` (stereo unspecified), the RP-LC retention time came to 611 s.

As for `Cc1sc2ccn(C)c(=O)c2c1C(=O)N1CCCCCC1`, the RP-LC retention time worked out at 705 s.

On to `CCc1cc(C2CCCN2Cc2ccc(OCC(N)=O)c(OC)c2)on1` (stereo unspecified), for which the RP-LC retention time was found to be 570 s.

Compound `CNCC[C@H](Oc1ccc(C(F)(F)F)cc1)c1ccccc1` showed an RP-LC retention time of 818 s.

The compound `CCOc1ccc(-c2cc3c(=O)n(Cc4nc(-c5ccccc5OC)no4)ncn3n2)cc1` returned an RP-LC retention time of 1050 s.

`NC(=O)c1ccc(Cl)c2ccccc12` returned an RP-LC retention time of 777 s.

The compound `CNC(=O)c1cn2ccnc(-c3ccc(OC)cc3)c2n1` gave an RP-LC retention time of 711 s.

On to `O=C(Cn1c(C2CCCO2)nc2ccccc21)Nc1ccccc1` (stereo unspecified), for which the RP-LC retention time was found to be 638 s.

The compound `COc1ccc(/C=C2/CCOC2=O)cc1` gave an RP-LC retention time of 833 s.

For `CC(C)C(=O)N1CCc2ccc([N+](=O)[O-])cc2C1`, the RP-LC retention time was 728 s.

Consider `COC(=O)C1=C(C)N(C(C)C)C(=O)C1(NC(=O)c1ccccc1OC)C(F)(F)F` (stereo unspecified), for which the RP-LC retention time turned out to be 1010 s.

Turning to `COc1ccc(-c2csc(NC(=O)/C=C/C(=O)O)n2)cc1`, the RP-LC retention time amounted to 752 s.

`Cc1ccc(C(=O)NCc2[nH]nc3ccccc23)cc1C` displayed an RP-LC retention time of 788 s.

As for `N#Cc1cccc(NC(=O)CN2CCc3[nH]c4c(F)c(Cl)ccc4c(=O)c3C2)c1`, the RP-LC retention time was found to be 913 s.

In the case of `COC[C@@H]1CN(Cc2ccc3cc[nH]c3c2)C[C@H]1c1nc(C)no1`, the RP-LC retention time came to 631 s.

With `CCc1nc2cc(-c3noc(-c4cnccn4)n3)ccc2o1`, the RP-LC retention time is 830 s.

Regarding `COc1ccc(-n2c(=O)n(C)c(=O)c3cc(C(=O)NCc4ccc(C)cc4)cnc32)cc1`, the RP-LC retention time was 888 s.

Regarding `CCC(C)NC(=O)Cn1cnc2nc(N3CCCC(C(=O)NC)C3)sc2c1=O` (stereo unspecified), the RP-LC retention time was 608 s.

For the compound `Cc1cc(NC(=O)Cn2cnc3nc4c(cc3c2=O)CCCC4)ccc1Br`, the RP-LC retention time came out at 851 s.

Take `O=S(=O)(c1cccc(Cl)c1)N1CCN(c2cnn3cnnc3c2)CC1`: the RP-LC retention time was determined as 703 s.

For the compound `COc1ccc(-c2cc(C(=O)Nc3ccccc3)nn2C2CCS(=O)(=O)C2)cc1` (stereo unspecified), the RP-LC retention time is 911 s.

`O=S(=O)(c1ccc2c(c1)CCCC2)N1CCCC1c1nc(-c2cccc(Cl)c2)no1` (stereo unspecified) gave an RP-LC retention time of 1410 s.

For the compound `O=C(Nc1cc(F)ccc1F)C1CCN(C(=O)c2cccn2-c2cccnc2)CC1`, the RP-LC retention time is 728 s.

`O=C(CSc1ncn[nH]1)Nc1ccc(Cl)cc1` yielded an RP-LC retention time of 642 s.

`NC(=O)c1cccc(Nc2c(-c3ccc(Cl)cc3)nc3cnccn23)c1` showed an RP-LC retention time of 685 s.

In turn, `CN(CC#N)C(=O)c1ccc2c(c1)CCN2C(=O)C1CC1` displayed an RP-LC retention time of 680 s.

`CCn1ncc(N2CCC(NC(=O)C(C)(C)C)CC2)cc1=O`: the RP-LC retention time worked out at 576 s.

In turn, `COc1ncccc1C(=O)NCc1nnc(C)o1` came in with an RP-LC retention time of 579 s.

The compound `Cc1sc(NC(=O)c2ccc(F)cc2)nc1-c1ccc2c(c1)NC(=O)C(C)O2` (stereo unspecified) displayed an RP-LC retention time of 935 s.

`O=C(Cc1nnc(-c2cnccn2)o1)Nc1ccccc1Cl` yielded an RP-LC retention time of 681 s.

On to `COC(=O)c1nnn(-c2ccc(OC)cc2)c1C(=O)OC`, for which the RP-LC retention time came to 815 s.

Regarding `COc1ccc(Cl)cc1NS(=O)(=O)c1cc2c(s1)CCN(C(=O)C1CCC1)C2`, the RP-LC retention time amounted to 973 s.

The compound `O=C(CCc1c(-c2ccc(Br)cc2)nc2ccccn12)NCc1cccnc1` displayed an RP-LC retention time of 557 s.

`COc1ccc(N2C=C(C#N)S(=O)(=O)c3cc(F)ccc32)c(OC)c1` yielded an RP-LC retention time of 893 s.

Take `CCCOc1ccc(CNC(=O)C2CCN(c3ncnc4c3oc3ccccc34)CC2)cc1`: the RP-LC retention time was 841 s.

Take `Fc1cccc(-c2noc(Cc3nnc(-c4ccccc4)o3)n2)c1`: the RP-LC retention time is 974 s.

`Cc1nn(-c2ccccc2)c(C)c1/C=N/N1CCN(Cc2ccccc2)CC1` returned an RP-LC retention time of 687 s.

Consider `CCCNC(=O)CCc1nc2ccccc2n(CC(=O)NCc2ccccc2)c1=O`, for which the RP-LC retention time was found to be 1270 s.

In the case of `CCc1cccc(C)c1NC(=O)Cn1cnc2nc(N3CCC(C(=O)NC4CC4)CC3)sc2c1=O`, the RP-LC retention time was determined as 686 s.

On to `O=C(NCC(c1ccco1)N1CCOCC1)c1cc(-c2ccc3c(c2)CCCC3)on1` (stereo unspecified), for which the RP-LC retention time amounted to 827 s.

Regarding `Cc1ccc(C)c(NC(=O)N2CCC(c3cc(N)on3)CC2)c1`, the RP-LC retention time was 698 s.

As to `O=C(NCC(F)(F)F)C1CN(C(=O)COc2ccccc2F)C1`, the RP-LC retention time was determined as 666 s.

For the compound `Cc1ccc2nc(-c3ccccc3)c(Nc3ccc(Cl)cc3)n2c1`, the RP-LC retention time worked out at 755 s.

As for `CCOc1ccc(-c2noc(CN3N=NC4C(=O)N(c5ccc(OC)cc5)C(=O)C43)n2)cc1OC` (stereo unspecified), the RP-LC retention time turned out to be 924 s.

On to `Cc1ccc(CN2CCC(CNC(=O)CSc3nc4ccccc4n(C)c3=O)C2)cc1` (stereo unspecified), for which the RP-LC retention time stood at 634 s.

The compound `CCOC(=O)c1cc(-c2ccccc2)n(CCC(=O)N2CCN(c3ccccn3)CC2)c1C` displayed an RP-LC retention time of 715 s.

In turn, `CCCSCCCNC(=O)c1cc2n(n1)CCCN(Cc1ccc(C)cc1)C2=O` registered an RP-LC retention time of 852 s.

As to `CC(C)Cn1c(=O)c(C(=O)NCc2ccccc2)nc2cccnc21`, the RP-LC retention time worked out at 915 s.

In the case of `O=C(Nc1cnc(N2CCCC2)nc1)c1cccs1`, the RP-LC retention time was determined as 667 s.

`CCOc1ccc(-n2c(=O)c3sccc3n(Cc3nc(-c4ccc(F)c(Cl)c4)no3)c2=O)cc1` showed an RP-LC retention time of 1140 s.

Turning to `O=C(NCc1ccco1)c1cc2c(s1)CCN(C(=O)c1ccc(Cl)cc1)C2`, the RP-LC retention time was 846 s.

For the compound `CC(C)NC(=O)CN1C(=O)CCSc2ccccc21`, the RP-LC retention time came out at 708 s.

`CCn1cc(-c2nc(-c3ccccn3)no2)c(=O)c2cc(F)c(N3CCOCC3)cc21` returned an RP-LC retention time of 744 s.

`CCc1ccc(-c2csc(Nc3ccc(S(=O)(=O)Nc4nc(C)cc(C)n4)cc3)n2)cc1` came in with an RP-LC retention time of 1040 s.

Regarding `CN(Cc1ccccc1)C(=O)c1ccc(CN2CCN(C3CCCC3)C(=O)C2=O)cc1`, the RP-LC retention time worked out at 763 s.

The record behind these values is the METLIN SMRT retention time set (Domingo-Almenara et al. 2019).
